Data published in patent US8415469B2, “Compounds and methods for kinase modulation, and indications therefor” (Plexxikon Inc., priority 2005, dated 2013).
Like-named read-outs stand apart in the source and are kept apart here.

Legend:
Type in all cases: biochemical
B-Raf = target: T1, B-Raf (Homo sapiens, UniProt P15056); assay: AlphaScreen kinase assay, B-Raf
T1 construct: purchased Upstate Biotechnology

B-Raf V600E = target: T2, B-Raf V600E (Homo sapiens, UniProt P15056, V600E); assay: AlphaScreen kinase assay, B-Raf V600E
T2 construct: P4254. pFastBacBD-CDC37 BRAF D437-K722-X, V600E; His6 with pFastBac HT leader (TEV site) (N); made in house; host or cells: Sf9 (baculovirus; chaperone CDC37 co-expressed)
T2 sequence (P15056 with tags, fused parts or gaps V600E): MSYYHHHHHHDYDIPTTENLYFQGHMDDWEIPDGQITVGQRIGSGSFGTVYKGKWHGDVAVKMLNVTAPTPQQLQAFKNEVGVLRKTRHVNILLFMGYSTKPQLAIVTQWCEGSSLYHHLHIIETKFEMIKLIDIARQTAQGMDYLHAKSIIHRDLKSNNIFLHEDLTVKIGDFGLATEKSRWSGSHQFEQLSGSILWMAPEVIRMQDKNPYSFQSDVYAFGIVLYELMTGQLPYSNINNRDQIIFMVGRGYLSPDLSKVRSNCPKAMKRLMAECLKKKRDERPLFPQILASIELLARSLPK

c-Raf-1 = target: T3, c-Raf-1 (Homo sapiens, UniProt P04049); assay: AlphaScreen kinase assay, c-Raf-1; conditions: read-out: IC50, activity toward kinase c-Raf-1
T3 construct: purchased Upstate Biotechnology

Fak = target: T4, Fak (Homo sapiens, UniProt Q05397); assay: AlphaScreen kinase assay, Fak; conditions: read-out: IC50, activity toward kinase Fak
T4 construct: P1358.pFastBacHtb FAK S411-Q686-X; His6 with pFastBacHTb leader (TEV site) (N); made in house; host or cells: Sf9 (baculovirus)
T4 sequence (Q05397 411-686): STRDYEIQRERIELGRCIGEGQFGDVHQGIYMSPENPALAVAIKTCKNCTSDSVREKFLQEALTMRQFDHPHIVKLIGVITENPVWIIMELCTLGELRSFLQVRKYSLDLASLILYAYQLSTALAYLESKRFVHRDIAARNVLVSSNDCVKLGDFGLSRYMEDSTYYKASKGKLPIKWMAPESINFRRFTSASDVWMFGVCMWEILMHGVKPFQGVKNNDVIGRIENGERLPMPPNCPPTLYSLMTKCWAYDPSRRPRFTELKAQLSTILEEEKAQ

FGFR1 = target: T5, FGFR1 (Homo sapiens, UniProt P11362, C488A/C584S); assay: AlphaScreen kinase assay, FGFR1; conditions: read-out: IC50, activity toward kinase FGFR
T5 construct: P1351.pET N6 BI-PTP FGFR A458-E765-X C488A, C584S; made in house; host or cells: E. coli (PTP1B co-expressed)
T5 sequence (P11362 458-765 C488A/C584S): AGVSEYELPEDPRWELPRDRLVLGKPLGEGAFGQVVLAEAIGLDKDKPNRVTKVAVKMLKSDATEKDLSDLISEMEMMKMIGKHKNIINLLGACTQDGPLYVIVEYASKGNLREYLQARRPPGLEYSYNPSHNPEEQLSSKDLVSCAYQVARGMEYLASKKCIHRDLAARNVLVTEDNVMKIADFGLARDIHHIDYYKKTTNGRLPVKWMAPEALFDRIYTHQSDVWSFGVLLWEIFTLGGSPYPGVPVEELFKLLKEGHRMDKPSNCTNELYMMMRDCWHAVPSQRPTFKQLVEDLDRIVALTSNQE

Flt1 = target: T6, Flt1 (Homo sapiens, UniProt P17948); assay: AlphaScreen kinase assay, Flt1; conditions: read-out: IC50, activity toward kinase Flt1
T6 construct: P1826.pETN6 BI-PTP FLT1 M799-D1165-X WT; His6 (N); made in house; host or cells: E. coli (PTP1B co-expressed)
T6 sequence (P17948 with tags, fused parts or gaps): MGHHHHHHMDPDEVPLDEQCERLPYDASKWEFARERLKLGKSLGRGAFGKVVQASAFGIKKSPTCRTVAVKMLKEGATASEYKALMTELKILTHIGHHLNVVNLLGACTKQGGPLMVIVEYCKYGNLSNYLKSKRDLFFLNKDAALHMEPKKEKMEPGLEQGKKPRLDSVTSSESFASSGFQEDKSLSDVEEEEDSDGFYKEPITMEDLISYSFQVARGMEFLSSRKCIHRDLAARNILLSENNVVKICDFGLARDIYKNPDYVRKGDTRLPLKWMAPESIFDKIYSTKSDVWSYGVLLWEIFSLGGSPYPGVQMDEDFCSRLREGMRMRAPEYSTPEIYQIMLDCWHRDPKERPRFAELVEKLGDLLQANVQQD

Fms = target: T7, Fms (Homo sapiens, UniProt P07333); assay: AlphaScreen kinase assay, Fms; conditions: read-out: IC50, activity toward kinase Fms
T7 construct: purchased Upstate Biotechnology

Jnk1 = target: T8, Jnk1 (Homo sapiens, UniProt P45983); assay: AlphaScreen kinase assay, Jnk1; conditions: read-out: IC50, activity toward kinase Jnk1
T8 construct: purchased Upstate Biotechnology
T8 sequence (P45983 whole entry): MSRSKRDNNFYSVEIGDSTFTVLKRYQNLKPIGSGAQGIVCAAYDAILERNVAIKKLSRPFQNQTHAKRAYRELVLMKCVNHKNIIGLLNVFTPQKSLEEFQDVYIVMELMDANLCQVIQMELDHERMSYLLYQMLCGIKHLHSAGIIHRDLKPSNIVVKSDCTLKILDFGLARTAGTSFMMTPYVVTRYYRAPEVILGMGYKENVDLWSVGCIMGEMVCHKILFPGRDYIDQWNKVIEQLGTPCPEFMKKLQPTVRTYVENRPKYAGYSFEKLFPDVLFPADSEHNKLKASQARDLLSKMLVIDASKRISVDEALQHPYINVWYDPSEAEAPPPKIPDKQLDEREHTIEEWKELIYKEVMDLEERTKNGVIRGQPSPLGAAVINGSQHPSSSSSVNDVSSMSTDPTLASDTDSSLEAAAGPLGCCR

Jnk3 = target: T9, Jnk3 (Homo sapiens, UniProt P53779); assay: AlphaScreen kinase assay, Jnk3; conditions: read-out: IC50, activity toward kinase Jnk3
T9 construct: purchased Upstate Biotechnology

Kit = target: T10, Kit (Homo sapiens, UniProt P10721); assay: AlphaScreen kinase assay, Kit; conditions: read-out: IC50, activity toward kinase Kit
T10 construct: P1332.N6 BI PTP KIT M552-K948-X COD; His6 (N); made in house; host or cells: E. coli (PTP1B co-expressed)
T10 sequence (P10721 with tags, fused parts or gaps): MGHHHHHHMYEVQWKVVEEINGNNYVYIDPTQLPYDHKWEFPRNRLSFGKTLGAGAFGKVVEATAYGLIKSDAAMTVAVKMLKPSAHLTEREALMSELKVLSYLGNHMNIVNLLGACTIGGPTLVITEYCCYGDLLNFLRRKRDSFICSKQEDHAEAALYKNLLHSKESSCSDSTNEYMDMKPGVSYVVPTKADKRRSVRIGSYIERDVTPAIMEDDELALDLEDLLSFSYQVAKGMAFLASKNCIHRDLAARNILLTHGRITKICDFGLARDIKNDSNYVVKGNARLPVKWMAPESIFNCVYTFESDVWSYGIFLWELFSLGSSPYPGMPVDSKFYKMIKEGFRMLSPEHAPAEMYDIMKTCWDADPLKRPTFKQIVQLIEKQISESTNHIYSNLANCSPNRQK

Met = target: T11, Met (Homo sapiens, UniProt P08581); assay: AlphaScreen kinase assay, Met; conditions: read-out: IC50, activity toward kinase Met
T11 construct: P1818.pETN6 BI-PTP MET G1056-G1364-X WT; His6 (N); made in house; host or cells: E. coli (PTP1B co-expressed)
T11 sequence (P08581 with tags, fused parts or gaps): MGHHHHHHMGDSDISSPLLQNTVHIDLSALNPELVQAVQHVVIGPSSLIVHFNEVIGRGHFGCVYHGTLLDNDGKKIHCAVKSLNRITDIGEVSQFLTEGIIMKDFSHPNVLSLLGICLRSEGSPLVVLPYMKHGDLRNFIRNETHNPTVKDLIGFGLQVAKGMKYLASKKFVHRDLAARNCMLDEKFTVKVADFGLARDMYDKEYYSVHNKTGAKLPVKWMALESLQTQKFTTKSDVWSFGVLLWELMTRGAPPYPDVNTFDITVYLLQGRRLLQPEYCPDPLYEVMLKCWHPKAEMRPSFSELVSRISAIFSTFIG
Excerpt: (§1) AlphaScreen assay was used to screen additional kinases. The assay is similarly dependent on the phosphorylation of a peptide substrate. In this assay, an antibody that recognizes phosphorylated substrate is bound to an acceptor bead. The peptide substrate is attached to biotin, which binds to a donor head that contains streptavidin. Thus phosphorylated substrate is bound by antibody and streptavidin, bringing the donor and acceptor heads into close proximity when kinase is not inhibited. The donor produces singlet oxygen which results in emission from the acceptor when they are in close proximity. Conversely, when kinase is inhibited, the donor and acceptor beads are not associated and the emission from the acceptor is reduced.
(§2) AlphaScreen assays were done using compounds dissolved in DMSO to a concentration of 20 mM. The compounds were diluted accordingly to the desired final concentrations in each sample well, using 1:3 serial dilution for a total of 8 concentration points.

Ret = target: T12, Ret (Homo sapiens, UniProt P07949); assay: AlphaScreen kinase assay, Ret; conditions: read-out: IC50, activity toward kinase Ret
T12 construct: P1378.pET-SF BI-PTP RET H661-R1012 HIS; made in house
T12 sequence (P07949 with tags, fused parts or gaps): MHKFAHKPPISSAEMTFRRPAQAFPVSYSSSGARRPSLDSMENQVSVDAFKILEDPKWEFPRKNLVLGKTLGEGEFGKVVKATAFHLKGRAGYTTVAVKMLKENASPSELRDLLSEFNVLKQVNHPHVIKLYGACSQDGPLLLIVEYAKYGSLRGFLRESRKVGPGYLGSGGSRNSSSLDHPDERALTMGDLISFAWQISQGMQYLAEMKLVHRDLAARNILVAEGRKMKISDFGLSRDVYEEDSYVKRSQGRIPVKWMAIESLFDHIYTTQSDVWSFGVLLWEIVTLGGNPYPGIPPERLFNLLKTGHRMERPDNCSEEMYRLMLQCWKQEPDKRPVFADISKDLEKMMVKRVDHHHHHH

Src = target: T13, Src (Homo sapiens, UniProt P12931); assay: AlphaScreen kinase assay, Src; conditions: read-out: IC50, activity toward kinase Src
T13 construct: P1144. pET-N6 BI-PTP SRC V86-L536-X; made in house
T13 sequence (P12931 with tags, fused parts or gaps): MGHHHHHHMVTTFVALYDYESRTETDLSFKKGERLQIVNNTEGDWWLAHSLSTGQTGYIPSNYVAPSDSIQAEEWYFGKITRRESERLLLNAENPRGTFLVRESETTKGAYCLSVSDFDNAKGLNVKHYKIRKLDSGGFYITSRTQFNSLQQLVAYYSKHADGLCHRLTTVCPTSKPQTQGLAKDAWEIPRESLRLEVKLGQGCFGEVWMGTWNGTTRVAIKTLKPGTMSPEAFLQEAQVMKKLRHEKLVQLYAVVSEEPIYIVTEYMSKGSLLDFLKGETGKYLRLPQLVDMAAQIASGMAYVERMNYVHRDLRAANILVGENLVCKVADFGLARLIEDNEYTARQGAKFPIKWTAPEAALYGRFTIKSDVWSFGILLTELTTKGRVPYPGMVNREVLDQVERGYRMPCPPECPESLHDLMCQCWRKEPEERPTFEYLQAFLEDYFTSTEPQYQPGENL

Zap70 = target: T14, Zap70 (Homo sapiens, UniProt P43403); assay: AlphaScreen kinase assay, Zap70; conditions: read-out: IC50, activity toward kinase Zap70
T14 construct: P1868.pFastBac1 ZAP70 D327-G606 HIS, WT; His7 (HHHHHHH) (C); made in house
T14 sequence (P43403 with tags, fused parts or gaps): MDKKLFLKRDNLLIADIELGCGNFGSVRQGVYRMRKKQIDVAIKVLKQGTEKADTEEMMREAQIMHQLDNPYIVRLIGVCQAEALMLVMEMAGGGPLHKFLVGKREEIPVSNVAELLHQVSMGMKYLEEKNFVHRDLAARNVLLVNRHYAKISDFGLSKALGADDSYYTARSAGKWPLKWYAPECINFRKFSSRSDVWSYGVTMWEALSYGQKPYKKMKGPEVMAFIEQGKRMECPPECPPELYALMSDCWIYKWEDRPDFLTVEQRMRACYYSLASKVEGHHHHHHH
Outline: (§3)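 Stock 20 mM compound in DMSO, diluted 1:3 serially to 8 final concentrations. Kinase phosphorylates biotinylated peptide; donor (streptavidin) and acceptor (anti-phospho antibody) beads then associate. Reduced acceptor emission indicates inhibition.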

Akt3 = Akt3 (Homo sapiens, UniProt Q9Y243); assay: AlphaScreen kinase assay, Akt3; conditions: read-out: IC50, activity toward kinase Akt3
Excerpt: as §1, §2

Abl = target: T15, Abl (Homo sapiens, UniProt P00519); assay: AlphaScreen kinase assay, Abl; conditions: read-out: activity toward kinase Abl, IC50
T15 construct: P1121. pET-SPEC BI-PTP Abl G227-V515-X; His6 (N); made in house; host or cells: E. coli (PTP1B co-expressed)
T15 sequence (P00519 with tags, fused parts or gaps): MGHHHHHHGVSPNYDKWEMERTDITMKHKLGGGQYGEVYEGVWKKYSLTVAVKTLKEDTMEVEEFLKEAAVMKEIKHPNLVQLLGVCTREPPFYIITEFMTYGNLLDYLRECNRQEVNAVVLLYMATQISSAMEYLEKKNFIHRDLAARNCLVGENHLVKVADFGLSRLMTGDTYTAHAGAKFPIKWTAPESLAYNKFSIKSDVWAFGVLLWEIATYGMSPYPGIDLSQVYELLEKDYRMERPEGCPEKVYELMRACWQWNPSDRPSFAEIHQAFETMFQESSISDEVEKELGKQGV
Excerpt: as §1, §2

Jnk2 = target: T16, Jnk2 (Homo sapiens, UniProt P45984); assay: AlphaScreen kinase assay, Jnk2; conditions: read-out: IC50, activity toward kinase Jnk2
T16 construct: purchased Roche Protein Expression Group (Indianapolis, IN)
Outline: as §3

Kdr = target: T17, Kdr (Homo sapiens, UniProt P35968); assay: Z'-Lyte FRET kinase assay (Invitrogen), Kdr; conditions: read-out: IC50, activity toward kinase Kdr
T17 construct: purchased Invitrogen (assay run by Invitrogen)
T17 sequence (P35968 20-1356): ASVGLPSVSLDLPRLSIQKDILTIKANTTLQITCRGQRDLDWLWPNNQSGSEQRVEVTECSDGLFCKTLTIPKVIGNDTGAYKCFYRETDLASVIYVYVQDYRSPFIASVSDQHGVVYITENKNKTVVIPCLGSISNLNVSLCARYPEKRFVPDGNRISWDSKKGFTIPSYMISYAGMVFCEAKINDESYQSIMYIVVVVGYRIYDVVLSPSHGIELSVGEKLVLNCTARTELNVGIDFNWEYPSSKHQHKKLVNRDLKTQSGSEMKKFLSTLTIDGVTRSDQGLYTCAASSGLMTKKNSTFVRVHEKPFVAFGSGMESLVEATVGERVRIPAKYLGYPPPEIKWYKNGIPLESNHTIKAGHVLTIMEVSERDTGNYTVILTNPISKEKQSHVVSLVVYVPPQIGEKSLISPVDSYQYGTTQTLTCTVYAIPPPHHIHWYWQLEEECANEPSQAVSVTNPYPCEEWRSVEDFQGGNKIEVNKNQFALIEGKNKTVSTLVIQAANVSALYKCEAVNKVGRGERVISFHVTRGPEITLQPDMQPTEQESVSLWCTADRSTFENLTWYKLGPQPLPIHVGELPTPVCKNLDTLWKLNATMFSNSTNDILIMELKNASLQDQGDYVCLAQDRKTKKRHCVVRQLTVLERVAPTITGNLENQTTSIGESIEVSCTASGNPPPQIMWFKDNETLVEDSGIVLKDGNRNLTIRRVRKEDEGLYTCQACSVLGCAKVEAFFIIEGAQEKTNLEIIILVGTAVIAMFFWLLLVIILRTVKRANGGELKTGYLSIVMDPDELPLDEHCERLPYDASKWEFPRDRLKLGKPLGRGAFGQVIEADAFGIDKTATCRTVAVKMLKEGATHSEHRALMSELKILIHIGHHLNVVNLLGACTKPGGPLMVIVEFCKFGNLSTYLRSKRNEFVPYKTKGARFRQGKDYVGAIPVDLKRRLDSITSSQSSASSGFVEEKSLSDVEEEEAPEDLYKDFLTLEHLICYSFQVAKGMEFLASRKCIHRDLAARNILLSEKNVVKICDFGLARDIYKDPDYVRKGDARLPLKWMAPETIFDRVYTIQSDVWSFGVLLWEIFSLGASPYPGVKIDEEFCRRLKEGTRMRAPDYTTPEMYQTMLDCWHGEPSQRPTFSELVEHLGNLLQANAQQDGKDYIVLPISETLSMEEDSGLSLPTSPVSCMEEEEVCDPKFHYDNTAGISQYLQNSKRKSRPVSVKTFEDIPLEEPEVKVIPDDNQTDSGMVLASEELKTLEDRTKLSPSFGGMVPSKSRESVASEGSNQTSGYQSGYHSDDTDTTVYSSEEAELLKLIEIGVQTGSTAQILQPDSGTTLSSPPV

Stk6 = target: T18, Stk6 (Homo sapiens, UniProt O14965); assay: Z'-Lyte FRET kinase assay (Invitrogen), Stk6; conditions: read-out: IC50, activity toward kinase Stk6
T18 construct: purchased Invitrogen (Carlsbad, Calif.), screening service
T18 sequence (O14965 1-403): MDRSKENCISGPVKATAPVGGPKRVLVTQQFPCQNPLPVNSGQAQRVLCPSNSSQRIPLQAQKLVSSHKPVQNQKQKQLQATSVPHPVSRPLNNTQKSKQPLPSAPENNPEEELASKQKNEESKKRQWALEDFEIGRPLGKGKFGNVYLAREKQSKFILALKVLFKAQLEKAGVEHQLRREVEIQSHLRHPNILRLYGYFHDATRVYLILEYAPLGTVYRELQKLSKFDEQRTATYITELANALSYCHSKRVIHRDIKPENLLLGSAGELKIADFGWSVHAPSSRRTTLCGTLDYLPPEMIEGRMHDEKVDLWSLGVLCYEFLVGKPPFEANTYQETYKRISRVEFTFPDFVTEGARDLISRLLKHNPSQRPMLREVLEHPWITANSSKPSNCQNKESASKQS

Pyk2 = target: T19, Pyk2 (Homo sapiens, UniProt Q14289); assay: AlphaScreen kinase assay, Pyk2; conditions: read-out: IC50, activity toward kinase Pyk2
T19 construct: purchased Upstate Biotechnology

MAP4K4 = MAP4K4 (Homo sapiens, UniProt O95819); assay: AlphaScreen kinase assay, MAP4K4; conditions: read-out: IC50, activity toward kinase MAP4K4
[1] = read-out: IC50, activity toward kinase B-Raf
[2] = read-out: IC50, activity toward kinase B-Raf V600E

Measured: IC50

T1 sequence (P15056 whole entry): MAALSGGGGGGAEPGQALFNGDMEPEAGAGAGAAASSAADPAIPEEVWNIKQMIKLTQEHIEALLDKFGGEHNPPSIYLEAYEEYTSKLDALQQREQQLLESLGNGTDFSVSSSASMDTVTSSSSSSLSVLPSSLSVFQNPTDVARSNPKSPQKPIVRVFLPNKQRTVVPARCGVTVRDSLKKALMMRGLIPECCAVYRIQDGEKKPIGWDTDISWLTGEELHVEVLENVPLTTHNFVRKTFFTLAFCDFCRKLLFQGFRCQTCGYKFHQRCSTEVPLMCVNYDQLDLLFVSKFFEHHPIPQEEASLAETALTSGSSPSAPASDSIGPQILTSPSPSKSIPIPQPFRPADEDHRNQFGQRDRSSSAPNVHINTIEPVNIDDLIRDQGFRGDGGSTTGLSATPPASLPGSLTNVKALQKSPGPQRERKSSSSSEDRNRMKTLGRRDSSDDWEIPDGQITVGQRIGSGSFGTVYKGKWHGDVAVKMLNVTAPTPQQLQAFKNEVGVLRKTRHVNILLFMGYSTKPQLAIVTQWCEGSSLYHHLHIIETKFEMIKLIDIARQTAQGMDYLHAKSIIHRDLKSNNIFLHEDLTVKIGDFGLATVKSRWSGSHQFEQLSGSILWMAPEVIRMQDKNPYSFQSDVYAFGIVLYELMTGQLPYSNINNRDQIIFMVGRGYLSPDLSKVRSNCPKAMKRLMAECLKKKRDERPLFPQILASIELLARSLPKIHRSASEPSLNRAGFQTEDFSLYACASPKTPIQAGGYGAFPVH

NC(=O)c1cccc(-c2cnc3[nH]cc(C(=O)c4cc(O)ccc4F)c3c2)c1 [Compound P-0037, 3-[3-(2-Fluoro-5-hydroxy-benzoyl)-1H-pyrrolo[2,3-b]pyridin-5-yl]-benzamide]
≤ 10 µM: B-Raf; [1] | B-Raf V600E; [2] | c-Raf-1 | Fak | FGFR1 | Flt1 | Fms | Jnk1 | Jnk3 | Kit | Met | Ret | Src | Zap70 | Akt3

COc1cccc(Cc2c[nH]c3ncc(-c4ccc(N)cc4)cc23)c1 [Compound P-0140]
≤ 10 µM: Abl | B-Raf | B-Raf V600E | FGFR1 | Jnk1 | Jnk2 | Kdr | Kit | Met | Ret | Stk6

COc1cccc(Cc2c[nH]c3ncc(-c4cccnc4)cc23)c1F [Compound P-0269, 3-(2-Fluoro-3-methoxy-benzyl)-5-pyridin-3-yl-1H-pyrrolo[2,3-b]pyridine]
≤ 10 µM: B-Raf; [1] | B-Raf V600E; [2] | c-Raf-1 | Fak | FGFR1 | Flt1 | Fms | Jnk1 | Jnk2 | Jnk3 | Kdr | Kit | Met | Pyk2 | Ret | Src | Stk6 | MAP4K4

O=S(=O)(NCc1c[nH]c2ncccc12)c1ccsc1 [Compound P-0320]
≤ 10 µM: Abl | B-Raf V600E; [2] | FGFR1 | Flt1 | Jnk3 | Kdr | Met | Pyk2 | Ret | Src | Zap70

CS(=O)(=O)CCNC(=O)c1ccc(S(=O)(=O)NCc2c[nH]c3ncccc23)cc1 [Compound P-0675]
≤ 10 µM: Abl | Fak | Jnk3 | Met | Ret | Zap70

S=C(NCc1ccncc1)NCc1c[nH]c2ncccc12 [Compound P-0781]
≤ 10 µM: Abl | Met

S=C(NCc1cccnc1)NCc1c[nH]c2ncccc12 [Compound P-1012]
≤ 10 µM: Abl | Met
